Results published in article PMC9109178 (Science (New York, N.Y.), 2021).

Assays:
[1] = target: T1, A. baumannii MsbA (Acinetobacter baumannii, UniProt A0A0B9X4I2); details: POPG nanodiscs, no TBT1
T1 sequence (A0A0B9X4I2 1-575): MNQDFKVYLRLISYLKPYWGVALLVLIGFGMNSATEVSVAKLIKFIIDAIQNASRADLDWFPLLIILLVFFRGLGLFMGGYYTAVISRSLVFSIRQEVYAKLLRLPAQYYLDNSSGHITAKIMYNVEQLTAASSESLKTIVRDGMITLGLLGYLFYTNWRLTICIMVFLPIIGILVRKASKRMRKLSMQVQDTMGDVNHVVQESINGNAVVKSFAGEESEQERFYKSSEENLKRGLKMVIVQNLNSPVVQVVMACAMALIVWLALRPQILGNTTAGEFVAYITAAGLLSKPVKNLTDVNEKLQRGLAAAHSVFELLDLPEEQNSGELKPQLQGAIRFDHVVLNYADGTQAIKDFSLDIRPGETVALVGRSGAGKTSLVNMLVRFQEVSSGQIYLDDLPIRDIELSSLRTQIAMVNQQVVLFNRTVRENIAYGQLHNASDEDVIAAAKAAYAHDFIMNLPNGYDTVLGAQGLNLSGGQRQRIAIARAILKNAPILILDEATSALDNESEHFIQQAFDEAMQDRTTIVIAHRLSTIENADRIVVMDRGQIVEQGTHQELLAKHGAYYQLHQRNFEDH

[2] = target: T1, A. baumannii MsbA; assay: ATPase activity assay; format: biochemical; details: stimulation of ATPase activity; allosteric, central substrate (LPS) binding site

Compound	ATPase activity, Michaelis-Menten kinetics [1]	EC50 [2]
Nc1ncnc2c1ncn2[C@@H]1O[C@H](COP(=O)(O)OP(=O)(O)OP(=O)(O)O)[C@@H](O)[C@H]1O [ATP]	ATPase activity of A. baumannii MsbA in nanodiscs, measured at varying ATP and TBT1 concentrations	
O=C(Nc1sc2c(c1C(=O)O)CCCC2)c1ccc(Cl)cc1 [TBT1]		~13 µM
